One data set has as its system hairless mouse (HR-1). In words: Parakeratosis-inhibiting effect test (oleic acid applied to back of hairless mouse; visual rough skin evaluation and parakeratosis value). Format: in vivo. The note with it: for parakeratosis-inhibiting effect: in words, summary of Table 1; for Visual evaluation (average of four animals) / Parakeratosis value (average of four animals): sample 3 mass %; for Visual evaluation (average of four animals): rough skin score, control = 2.0, no skin roughness = 0.0, 3 days application after 10 mass % oleic acid; for Parakeratosis value (average of four animals): scale 1.0 to 3.0, higher = parakeratosis advanced, control 2.0. On the procedure:
Aqueous solutions (containing 30 mass % of ethanol) of 3 mass % of a β-alanine derivative or salt thereof were prepared mainly as the evaluation sample. The pH was regulated by hydrochloric acid or sodium hydroxide so as to be 7.0 to 7.5. When sample solubility was low, the solution was prepared accordingly.
100 μL of 10 mass % oleic acid solution (solvent: ethanol) were applied to the back of a hairless mouse (HR-1; Hoshino Laboratory Animals). Then the sample solution (β-alanine derivative, and the like) was applied 100 μL at a time. This procedure was continued for three days. […] At the same time, the stratum corneum at the back of the hairless mouse was peeled off with tape, the nuclei were stained by hematoxylin, and the degree of parakeratosis was observed and evaluated by a parakeratosis value within a range of 1.0 to 3.0 (in 0.25 increments).

Another data set deals with panel of 20 women. Briefly: Sensory irritation tests. Particulars: for sensory irritation: in words, summary of Table 4; for Evaluation (sensory irritation, class of average rating): sample 3 mass %, 1 mL to cheek, rated for ten minutes. It is filed as in vivo, human. On the procedure: 1 mL of a control aqueous solution and the sample aqueous solution prepared in Example 1 were applied using a cotton swab to the left or right cheek, respectively, of each member of a panel of 20 women, and the irritating sensation was evaluated every 30 seconds for ten minutes beginning immediately after application, whereby a final evaluation was reported. The evaluation of the irritating sensation was made based on the following four levels of rating criteria, and the average rating was calculated, whereby the average was classified by the following criteria.
3: Continuation is not possible because of extremely strong irritation, such as tingling sensation, burning sensation, stinging sensation, itching, and the like.
2: Intolerable because of strong irritation, such as tingling sensation, burning sensation, stinging sensation, itching, and the like.
1: Tolerable, but with slight irritation such as tingling sensation, burning sensation, stinging sensation, itching, and the like.
0: Not particularly irritating.
(Evaluation Criteria) • A: average rating of less than 0.2 • B: average rating of from 0.2 to less than 1.0 • C: average rating of from 1.0 to less than 2.0 • D: average rating of 2.0 or greater

In data set [1] the test system is cheeks of healthy human males. In words: Human pore-shrinking effect (replica of cheek pores, three-dimensional laser scanning microscope). It is filed as in vivo. Particulars: for pore-shrinking effect: in words, summary of Table 2; for Replica assessment value (average of n = 5): twice a day for one month, pore size rating (1-13) after minus before application, control 0.3. How it is done:
An experiment was conducted whereby a sample was applied twice a day for one month to the cheeks of healthy human males in groups of 5 men each. Aqueous solutions (containing 15 mass % of ethanol) of 3 mass % of the β-alanine derivative or a salt thereof were prepared mainly as the evaluation sample. The pH was regulated by hydrochloric acid or sodium hydroxide so as to be 7.0 to 7.5. When the sample solubility was low, the solution was prepared accordingly. The control was an aqueous 15% ethanol solution. The sample aqueous solution and the control aqueous solution were applied to one half of the face at a time.
A replica was collected before and after continuous application, and changes in the shape of the pores at the same site were observed using a three-dimensional laser scanning microscope. The size of the pores was visually evaluated in the 13 steps of 1 through 13 (with the pores becoming larger as the numbers became larger), the difference in the ratings before and after application (after application—before application) was calculated, and the efficacy of each sample was studied using this difference as the replica assessment value.

The next data set relates to hairless mice (HR-1). In words: Inhibiting effect on rough skin induced by oleic acid application (transepidermal water loss). Format: in vivo, mouse. Further details: ΔTEWL value: unit not given here. Particulars: for rough skin preventing/ameliorating effect (ΔTEWL value versus control aqueous solution): in words, summary of Table 3; for ΔTEWL value: sample 3 mass %, average of four mice, 3 days after 10 mass % oleic acid, control 12.0, increase = rough skin worse. On the procedure: In order to investigate the inhibiting effect of β-alanine derivatives and salts thereof on rough skin induced by oleic acid application, the transepidermal water loss (TEWL value) before and after application was measured, the difference was compared with the control (control aqueous solution), and the effect was determined. […] The TEWL was determined using the TM210 TEWA Meter (Courage+Khazaka Electronic GmBH).
100 μL of 10 mass % oleic acid (solvent: ethanol) was applied to the back of hairless mice (HR-1, four mice per group). Then a sample solution (β-alanine derivatives) was applied 100 μL at a time. This procedure was continued for three days. On the following day, the TEWL value of the back was determined and the values of the four animals were averaged.

As to `O=C(O)CCNC(=O)c1ccccc1` [N-benzoyl-β-alanine], in the data set with hairless mouse (HR-1), the parakeratosis-inhibiting effect result was “reduced the parakeratosis value”, the “Visual evaluation (average of four animals)” value (“Visual evaluation” for short) worked out at 1.1 and the “Parakeratosis value (average of four animals)” value (shortened to “Parakeratosis value”) is 1.1. For the same molecule, in the data set with panel of 20 women, the sensory irritation result is listed as “no problem of sensory irritation” and the “Evaluation (sensory irritation, class of average rating)” value is “A (average rating of less than 0.2)”. Besides, the pore-shrinking effect result in data set [1] is listed as “effect was seen”. In addition, the “Replica assessment value (average of n = 5)” value (from here on “Replica assessment value”) in data set [1] (sample 1.0 mass %) is listed as −1.5. In addition, in the data set with hairless mice (HR-1), the “rough skin preventing/ameliorating effect (ΔTEWL value versus control aqueous solution)” value is given as “effect was seen” and the ΔTEWL value worked out at 4.0.

Turning to `O=C(O)CCNC1CCCCC1` [N-cyclohexyl-β-alanine], in the data set on hairless mouse (HR-1), the parakeratosis-inhibiting effect entry is recorded as “reduced the parakeratosis value”, the “Visual evaluation” value came to 1.1 and the “Parakeratosis value” value is on record as 1.1. In addition, in the data set with panel of 20 women, the sensory irritation entry is “no problem of sensory irritation”. For the same molecule, the pore-shrinking effect entry in data set [1] was “effect was seen”. Moreover, in data set [1] (sample 3 mass %), the “Replica assessment value” value is −0.9. Moreover, in the data set on hairless mice (HR-1), the “rough skin preventing/ameliorating effect (ΔTEWL value versus control aqueous solution)” value is reported as “effect was seen” and the ΔTEWL value came out at 9.0.

For the molecule `O=C(O)CCNCC1CCCCC1` [N-cyclohexylmethyl-β-alanine], in the data set with hairless mouse (HR-1), the parakeratosis-inhibiting effect entry is reported as “reduced the parakeratosis value”, the “Visual evaluation” value came to 1.1 and the “Parakeratosis value” value is 1.1. Also, in the data set with panel of 20 women, the sensory irritation entry was “no problem of sensory irritation” and the “Evaluation (sensory irritation, class of average rating)” value is “A (average rating of less than 0.2)”. In addition, the pore-shrinking effect entry in data set [1] was “effect was seen”. For the same molecule, the “Replica assessment value” value in data set [1] (sample 3 mass %) is listed as −0.8. Moreover, in the data set with hairless mice (HR-1), the “rough skin preventing/ameliorating effect (ΔTEWL value versus control aqueous solution)” value is on record as “effect was seen” and the ΔTEWL value is on record as 8.9.

In the case of `COc1cc(C(=O)NCCC(=O)O)cc(OC)c1OC` [N-(3′,4′,5′-trimethoxybenzoyl)-β-alanine], in the data set with hairless mouse (HR-1), the parakeratosis-inhibiting effect entry is recorded as “reduced the parakeratosis value”, the “Visual evaluation” value came out at 1.1 and the “Parakeratosis value” value is on record as 1.1. Also, in the data set with panel of 20 women, the sensory irritation entry is given as “no problem of sensory irritation” and the “Evaluation (sensory irritation, class of average rating)” value is on record as “A (average rating of less than 0.2)”. Further, in data set [1], the pore-shrinking effect result is “effect was seen”. The “Replica assessment value” value in data set [1] (sample 3 mass %) was −0.6. For the same molecule, in the data set with hairless mice (HR-1), the “rough skin preventing/ameliorating effect (ΔTEWL value versus control aqueous solution)” value was “effect was seen” and the ΔTEWL value amounted to 6.9.

Turning to `O=C(O)CCN1CCCCC1` [3-(1′-piperidine)-propionate, 3-(1′-piperidine)-propionic acid], in the data set on hairless mouse (HR-1), the parakeratosis-inhibiting effect result is on record as “reduced the parakeratosis value”, the “Visual evaluation” value stood at 1.4 and the “Parakeratosis value” value was 1.4. Further, in the data set with panel of 20 women, the sensory irritation entry is “no problem of sensory irritation” and the “Evaluation (sensory irritation, class of average rating)” value is reported as “A (average rating of less than 0.2)”. Moreover, the pore-shrinking effect entry in data set [1] is listed as “effect was seen”. In addition, the “Replica assessment value” value in data set [1] (sample 3 mass %) is recorded as −1.2. Further, in the data set on hairless mice (HR-1), the “rough skin preventing/ameliorating effect (ΔTEWL value versus control aqueous solution)” value is given as “effect was seen” and the ΔTEWL value is given as 5.5.

Turning to `O=C(O)CCNC(=O)C1CCCCC1` [N-cyclohexylcarbonyl-β-alanine], in the data set with hairless mouse (HR-1), the parakeratosis-inhibiting effect result is given as “reduced the parakeratosis value”, the “Visual evaluation” value came to 1.1 and the “Parakeratosis value” value amounted to 1.2. In addition, in the data set on panel of 20 women, the sensory irritation result was “no problem of sensory irritation” and the “Evaluation (sensory irritation, class of average rating)” value is “A (average rating of less than 0.2)”. In data set [1], the pore-shrinking effect entry is on record as “effect was seen”. Besides, the “Replica assessment value” value in data set [1] (sample 3 mass %) was −0.6. In the data set with hairless mice (HR-1), the “rough skin preventing/ameliorating effect (ΔTEWL value versus control aqueous solution)” value is reported as “effect was seen” and the ΔTEWL value was determined as 8.0.

On to `COc1ccccc1C(=O)NCCC(=O)O` [N-(2′-methoxybenzoyl)-β-alanine], for which, in the data set with hairless mouse (HR-1), the parakeratosis-inhibiting effect entry is “reduced the parakeratosis value”, the “Visual evaluation” value is listed as 1.1 and the “Parakeratosis value” value is recorded as 1.1. Besides, in the data set with panel of 20 women, the sensory irritation entry is given as “no problem of sensory irritation” and the “Evaluation (sensory irritation, class of average rating)” value was “A (average rating of less than 0.2)”. In data set [1], the pore-shrinking effect result is listed as “effect was seen”. Also, the “Replica assessment value” value in data set [1] (sample 3 mass %) is on record as −0.9. Also, in the data set with hairless mice (HR-1), the “rough skin preventing/ameliorating effect (ΔTEWL value versus control aqueous solution)” value is “effect was seen” and the ΔTEWL value was 7.0.

With `Cl.NCCC(N)=O` [β-alanine amide hydrochloride salt], in the data set on hairless mouse (HR-1), the parakeratosis-inhibiting effect entry is “reduced the parakeratosis value”, the “Visual evaluation” value worked out at 1.3 and the “Parakeratosis value” value is listed as 1.3. In the data set on panel of 20 women, the sensory irritation entry is reported as “no problem of sensory irritation” and the “Evaluation (sensory irritation, class of average rating)” value is given as “A (average rating of less than 0.2)”. In addition, the pore-shrinking effect result in data set [1] is on record as “effect was seen”. Moreover, the “Replica assessment value” value in data set [1] (sample 3 mass %) is listed as −0.3. For the same molecule, in the data set with hairless mice (HR-1), the “rough skin preventing/ameliorating effect (ΔTEWL value versus control aqueous solution)” value is “effect was seen” and the ΔTEWL value is given as 8.9.
